The values below come from patent US9868937B2, “Cell and gene based methods to improve cardiac function” (University of Washington, priority 2011, dated 2018).

Entries after “also recorded” stand apart in the source; their conditions may differ.

For this assay, the system named is mouse aortic smooth muscle. The assay is described as follows: Mouse aortic smooth muscle contraction in skinned muscle strips with dATP vs. ATP. In kind it is biochemical. The text has this: dATP has no affect on mouse aortic smooth muscle force development. To begin studying potential systemic effects of elevated dATP, we collaborated with Dr. Frank Brozovich (Mayo Clinic) to determine if dATP affects mouse aortic smooth muscle contraction.

Regarding `Nc1ncnc2c1ncn2[C@H]1C[C@H](O)[C@@H](COP(=O)(O)OP(=O)(O)OP(=O)(O)O)O1` [dATP, 2 deoxy-ATP], the “level of myosin light chain phosphorylation” value (control measurements (data not shown)) is reported as “did not change”. The “aortic smooth muscle contraction” value (dATP vs. ATP as the contractile substrate) is “did not differ; also recorded: did not alter contraction”.
